How the values were obtained:
[1] = tested on: recombinant NL4-3 virus (nef section replaced with Renilla luciferase gene) in MT-2 cells; test: HIV cell culture assay (antiviral activity, luciferase readout); type: cell-based; details: NL43, MT-2 cells infected for 4-5 days with recombinant NL4-3 Renilla luciferase virus
Method: HIV cell culture assay—MT-2 cells, 293T cells and the proviral DNA clone of NL4-3 virus were obtained from the NIH AIDS Research and Reference Reagent Program. MT-2 cells were propagated in RPMI 1640 media supplemented with 10% heat inactivated fetal bovine serum (FBS), […]. The 293T cells were propagated in DMEM media supplemented with 10% heat inactivated FBS, […]. A recombinant NL4-3 proviral clone, in which a section of the nef gene was replaced with the Renilla luciferase gene, was used to make the reference virus used in these studies. The recombinant virus was prepared through transfection of the recombinant NL4-3 proviral clone into 293T cells using Transit-293 Transfection Reagent from Mirus Bio LLC (Madison, WI). Supernatent was harvested after 2-3 days and the amount of virus present was titered in MT-2 cells using luciferase enzyme activity as a marker by measuring luciferase enzyme activity. Luciferase was quantitated using the EnduRen Live Cell Substrate from Promega (Madison, WI). Antiviral activities of compounds toward the recombinant virus were quantified by measuring luciferase activity in MT-2 cells infected for 4-5 days with the recombinant virus in the presence of serial dilutions of the compound.
The 50% effective concentration (EC50) was calculated by using the exponential form of the median effect equation where (Fa)=1/[1+(ED50/drug conc.)m] (Johnson VA, Byington RT. Infectivity Assay. In Techniques in HIV Research. ed. Aldovini A, Walker BD. 71-76. New York: Stockton Press. 1990). The 50% inhibitory concentration (EC50) was calculated by using the exponential form of the median effect equation where percent inhibition=1/[1+(EC50/drug concentration)m], where m is a parameter that reflects the slope of the concentration-response curve.

[2] = Compound cytotoxicity, XTT-based colorimetric assay; type: cell-based; details: human; uninfected MT2 cells, day 4, XTT assay
Method: Compound cytotoxicity and the corresponding CC50 values were determined using the same protocol as described in the antiviral assay except that uninfected cells were used. Cytotoxicity was assessed on day 4 in uninfected MT2 cells by using a XTT (2,3-bis[2-Methoxy-4-nitro-5-sulfophenyl]-2H-tetrazolium-5-carboxyanilide inner salt)-based colorimetric assay (Sigma-Aldrich, St Louis, Mo).

For `CC(C)Cc1ccc2c(=O)n(-c3ccc(Cl)c4c(NS(C)(=O)=O)nn(C)c34)c([C@H](Cc3cc(F)cc(F)c3)NC(=O)Cn3nc(C(F)F)c4c3C(F)(F)[C@@H]3C[C@H]43)nc2c1` [Example 25, N—((S)-1-(3-(4-chloro-1-methyl-3-(methylsulfonamido)-1H-indazol-7-yl)-7-isobutyl-4-oxo-3,4-dihydroquinazolin-2-yl)-2-(3,5-difluorophenyl)ethyl)-2-((3bS,4aR)-3-(difluoromethyl)-5,5-difluoro-3b,4,4a,5-tetrahydro-1H-cyclopropa[3,4]cyclopenta[1,2-c]pyrazol-1-yl)acetamide], the EC50 [1] was 0.167 nM and the CC50 at 4 day [2] was > 1000 nM.
For `Cn1nc(NS(C)(=O)=O)c2c(Cl)ccc(-n3c([C@H](Cc4cc(F)cc(F)c4)NC(=O)Cn4nc(C(F)(F)F)c5c4C(F)(F)[C@@H]4C[C@H]54)nc4cc(C(C)(C)C)ccc4c3=O)c21` [Example 26, N—((S)-1-(7-(tert-butyl)-3-(4-chloro-1-methyl-3-(methylsulfonamido)-1H-indazol-7-yl)-4-oxo-3,4-dihydroquinazolin-2-yl)-2-(3,5-difluorophenyl)ethyl)-2-((3bS,4aR)-5,5-difluoro-3-(trifluoromethyl)-3b,4,4a,5-tetrahydro-1H-cyclopropa[3,4]cyclopenta[1,2-c]pyrazol-1-yl)acetamide], the EC50 [1] was 0.443 nM and the CC50 at 4 day [2] was > 1000 nM.
In the case of `CC(C)(C)c1ccc2c(=O)n(-c3ccc(Cl)c4c(NS(=O)(=O)C5CC5)nn(CC(F)F)c34)c([C@H](Cc3cc(F)cc(F)c3)NC(=O)Cn3nc(C(F)F)c4c3C(F)(F)[C@@H]3C[C@H]43)nc2c1` [Example 27, N—((S)-1-(7-(tert-butyl)-3-(4-chloro-3-(cyclopropanesulfonamido)-1-(2,2-difluoroethyl)-1H-indazol-7-yl)-4-oxo-3,4-dihydroquinazolin-2-yl)-2-(3,5-difluorophenyl)ethyl)-2-((3bS,4aR)-3-(difluoromethyl)-5,5-difluoro-3b,4,4a,5-tetrahydro-1H-cyclopropa[3,4]cyclopenta[1,2-c]pyrazol-1-yl)acetamide], the EC50 [1] is reported as 0.61 nM and the CC50 at 4 day [2] is reported as > 1000 nM.
For `Cn1nc(NS(C)(=O)=O)c2c(Cl)ccc(-n3c([C@H](Cc4cc(F)cc(F)c4)NC(=O)Cn4nc(C(F)F)c5c4C(F)(F)[C@@H]4C[C@H]54)nc4cc(C(F)(F)C(C)(C)C)ccc4c3=O)c21` [Example 29, N—((S)-1-(3-(4-chloro-1-methyl-3-(methylsulfonamido)-1H-indazol-7-yl)-7-(1,1-difluoro-2,2-dimethylpropyl)-4-oxo-3,4-dihydroquinazolin-2-yl)-2-(3,5-difluorophenyl)ethyl)-2-((3bS,4aR)-3-(difluoromethyl)-5,5-difluoro-3b,4,4a,5-tetrahydro-1H-cyclopropa[3,4]cyclopenta[1,2-c]pyrazol-1-yl)acetamide], the EC50 [1] was 0.115 nM and the CC50 at 4 day [2] was > 1000 nM.
With `CS(=O)(=O)Nc1nn(CC(F)F)c2c(-n3c([C@H](Cc4cc(F)cc(F)c4)NC(=O)Cn4nc(C(F)F)c5c4C(F)(F)[C@@H]4C[C@H]54)nc4cc(C5CC5)ccc4c3=O)ccc(Cl)c12` [Example 30, N—((S)-1-(3-(4-chloro-1-(2,2-difluoroethyl)-3-(methylsulfonamido)-1H-indazol-7-yl)-7-cyclopropyl-4-oxo-3,4-dihydroquinazolin-2-yl)-2-(3,5-difluorophenyl)ethyl)-2-((3bS,4aR)-3-(difluoromethyl)-5,5-difluoro-3b,4,4a,5-tetrahydro-1H-cyclopropa[3,4]cyclopenta[1,2-c]pyrazol-1-yl)acetamide] the EC50 [1] was 0.097 nM and the CC50 at 4 day [2] was > 1000 nM.
For `O=C(Cn1nc(C(F)F)c2c1C(F)(F)[C@@H]1C[C@H]21)N[C@@H](Cc1cc(F)cc(F)c1)c1nc2cc(C3CC3)ccc2c(=O)n1-c1ccc(Cl)c2c(NS(=O)(=O)C3CC3)nn(CC(F)F)c12` [Example 31, N—((S)-1-(3-(4-chloro-3-(cyclopropanesulfonamido)-1-(2,2-difluoroethyl)-1H-indazol-7-yl)-7-cyclopropyl-4-oxo-3,4-dihydroquinazolin-2-yl)-2-(3,5-difluorophenyl)ethyl)-2-((3bS,4aR)-3-(difluoromethyl)-5,5-difluoro-3b,4,4a,5-tetrahydro-1H-cyclopropa[3,4]cyclopenta[1,2-c]pyrazol-1-yl)acetamide], the EC50 [1] was 0.046 nM and the CC50 at 4 day [2] was > 1000 nM.
For `Cn1nc(NS(C)(=O)=O)c2c(Cl)ccc(-n3c([C@H](Cc4cc(F)cc(F)c4)NC(=O)Cn4nc(C(F)F)c5c4C(F)(F)[C@@H]4C[C@H]54)nc4cc(C5CCCC5)ccc4c3=O)c21` [Example 32, N—((S)-1-(3-(4-chloro-1-methyl-3-(methylsulfonamido)-1H-indazol-7-yl)-7-cyclopentyl-4-oxo-3,4-dihydroquinazolin-2-yl)-2-(3,5-difluorophenyl)ethyl)-2-((3bS,4aR)-3-(difluoromethyl)-5,5-difluoro-3b,4,4a,5-tetrahydro-1H-cyclopropa[3,4]cyclopenta[1,2-c]pyrazol-1-yl)acetamide], the EC50 [1] was 0.285 nM and the CC50 at 4 day [2] was > 1000 nM.
With `Cn1nc(NS(C)(=O)=O)c2cccc(-n3c([C@H](Cc4cc(F)cc(F)c4)NC(=O)Cn4nc(C(F)F)c5c4C(F)(F)[C@@H]4C[C@H]54)nc4cc(C5CCCC5)ccc4c3=O)c21` [Example 33, N—((S)-1-(7-cyclopentyl-3-(1-methyl-3-(methylsulfonamido)-1H-indazol-7-yl)-4-oxo-3,4-dihydroquinazolin-2-yl)-2-(3,5-difluorophenyl)ethyl)-2-((3bS,4aR)-3-(difluoromethyl)-5,5-difluoro-3b,4,4a,5-tetrahydro-1H-cyclopropa[3,4]cyclopenta[1,2-c]pyrazol-1-yl)acetamide] the EC50 [1] was 1.26 nM and the CC50 at 4 day [2] was > 1000 nM.
With `Cn1nc(NS(C)(=O)=O)c2c(Cl)ccc(-n3c([C@H](Cc4cc(F)cc(F)c4)NC(=O)Cn4nc(C(F)F)c5c4C(F)(F)[C@@H]4C[C@H]54)nc4cc(C5CCCCC5)ccc4c3=O)c21` [Example 34, N—((S)-1-(3-(4-chloro-1-methyl-3-(methylsulfonamido)-H-indazol-7-yl)-7-cyclohexyl-4-oxo-3,4-dihydroquinazoin-2-yl)-2-(3,5-difluorophenyl)ethyl)-2-((3bS,4aR)-3-(difluoromethyl)-5,5-difluoro-3b,4,4a,5-tetrahydro-1H-cyclopropa[3,4]cyclopenta[1,2-c]pyrazol-1-yl)acetamide] the EC50 [1] was 0.597 nM and the CC50 at 4 day [2] was > 1000 nM.
In the case of `COc1ccc2c(=O)n(-c3ccc(Cl)c4c(NS(C)(=O)=O)nn(C)c34)c([C@H](Cc3cc(F)cc(F)c3)NC(=O)Cn3ccc(C(C)C)n3)nc2n1` [Example 35, (S)—N-(1-(3-(4-chloro-1-methyl-3-(methylsulfonamido)-1H-indazol-7-yl)-7-methoxy-4-oxo-3,4-dihydropyrido[2,3-d]pyrimidin-2-yl)-2-(3,5-difluorophenyl)ethyl)-2-(3-isopropyl-1H-pyrazol-1-yl)acetamide], the EC50 [1] is reported as 0.235 nM and the CC50 at 4 day [2] is reported as > 1000 nM.
For `COc1ccc2c(=O)n(-c3ccc(Cl)c4c(NS(C)(=O)=O)nn(C)c34)c([C@H](Cc3cc(F)cc(F)c3)NC(=O)Cn3ccc(C4CC4)n3)nc2n1` [Example 36, (S)—N-(1-(3-(4-chloro-1-methyl-3-(methylsulfonamido)-1H-indazol-7-yl)-7-methoxy-4-oxo-3,4-dihydropyrido[2,3-d]pyrimidin-2-yl)-2-(3,5-difluorophenyl)ethyl)-2-(3-cyclopropyl-1H-pyrazol-1-yl)acetamide], the EC50 [1] was 0.131 nM and the CC50 at 4 day [2] was > 1000 nM.

— US20240374598A1, “INHIBITORS OF HUMAN IMMUNODEFICIENCY VIRUS REPLICATION” (ViiV HEALTHCARE UK (NO.5) LIMITED, priority 2018, published 2024)
